Laboratory results reported in PubChem BioAssay AID328 (DTP/NCI, 2004).
“And” between values parts separate entries of the source, which are not always exact repeats. Identical values can stand only once. Toxic doses and inconclusive results are not listed. How the source made its calls: active means survival T/C of 150% or more; inactive means T/C below 125% in these data.

System: BDF1 mice, P388 leukemia ip, median survival T/C
Test: NCI In Vivo Anticancer Drug Screen. Data for tumor model P388 Leukemia (intraperitoneal) in B6D2F1 (BDF1) mice
Settings: endpoint: median survival time, higher = longer survival
In short: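 Read-out is survival of treated animals expressed relative to the vehicle group, as a T/C ratio.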

[1] = dose: 100.0 mg/kg/injection, schedule: Q01DX001 (ip), vehicle: Klucel (hydroxypropylcellulose) (HPC)
[2] = dose: 200.0 mg/kg/injection, schedule: Q01DX001 (ip), vehicle: Klucel (hydroxypropylcellulose) (HPC)
[3] = dose: 400.0 mg/kg/injection, schedule: Q01DX001 (ip), vehicle: Klucel (hydroxypropylcellulose) (HPC)
[4] = dose: 200.0 mg/kg/injection, schedule: Q01DX009 (ip), vehicle: saline with Tween-80
[5] = dose: 100.0 mg/kg/injection, schedule: Q04DX003 (ip), vehicle: saline with Tween-80
[6] = dose: 400.0 mg/kg/injection, schedule: Q04DX003 (ip), vehicle: saline with Tween-80
[7] = dose: 50.0 mg/kg/injection, schedule: Q01DX009 (ip), vehicle: Klucel (hydroxypropylcellulose) (HPC)
[8] = dose: 100.0 mg/kg/injection, schedule: Q01DX009 (ip), vehicle: Klucel (hydroxypropylcellulose) (HPC)
[9] = dose: 100.0 mg/kg/injection, schedule: Q04DX003 (ip), vehicle: Klucel (hydroxypropylcellulose) (HPC)
[10] = dose: 200.0 mg/kg/injection, schedule: Q01DX009 (ip), vehicle: Klucel (hydroxypropylcellulose) (HPC)
[11] = dose: 200.0 mg/kg/injection, schedule: Q04DX003 (ip), vehicle: Klucel (hydroxypropylcellulose) (HPC)
[12] = dose: 50.0 mg/kg/injection, schedule: Q01DX009 (ip), vehicle: water
[13] = dose: 100.0 mg/kg/injection, schedule: Q01DX009 (ip), vehicle: water
[14] = dose: 200.0 mg/kg/injection, schedule: Q01DX009 (ip), vehicle: water
[15] = dose: 25.0 mg/kg/injection, schedule: Q01DX009 (ip), vehicle: saline
[16] = dose: 50.0 mg/kg/injection, schedule: Q01DX009 (ip), vehicle: saline with Tween-80
[17] = dose: 100.0 mg/kg/injection, schedule: Q01DX009 (ip), vehicle: saline with Tween-80
[18] = dose: 400.0 mg/kg/injection, schedule: Q01DX009 (ip), vehicle: saline with Tween-80
[19] = dose: 50.0 mg/kg/injection, schedule: Q01DX009 (ip), vehicle: saline
[20] = dose: 25.0 mg/kg/injection, schedule: Q04DX003 (ip), vehicle: saline with Tween-80
[21] = dose: 50.0 mg/kg/injection, schedule: Q04DX003 (ip), vehicle: saline with Tween-80
[22] = dose: 6.25 mg/kg/injection, schedule: Q04DX003 (ip), vehicle: saline with Tween-80
[23] = dose: 12.5 mg/kg/injection, schedule: Q04DX003 (ip), vehicle: saline with Tween-80

Measured: T/C

O=C(CSCC(=O)c1ccc(Br)cc1)c1ccc(Br)cc1
inactive: [1] 100 % of control | [2] 100 % of control | [3] 100 % of control

CNC(=S)N/N=C\C(=N/NC(=S)NC)c1ccco1
inactive: dose: 15.0 mg/kg/injection, schedule: Q01DX009 (ip), vehicle: saline with Tween-80 100 % of control | dose: 30.0 mg/kg/injection, schedule: Q01DX009 (ip), vehicle: saline with Tween-80 98 % of control

CCC(CO)NC(=O)/C=C/c1ccc(Cl)cc1 (stereo not given)
inactive: [4] 91 % of control

Cc1c(Cl)cccc1NC(=O)COc1ccc(Cl)cc1Cl
inactive: [5] 108 % of control | dose: 200.0 mg/kg/injection, schedule: Q04DX003 (ip), vehicle: saline with Tween-80 87 % of control | [6] 95 % of control

Cc1onc(-c2c(Cl)cccc2Cl)c1C(=O)Nc1ccccc1CC1c2ccccc2CCN1C (stereo not given)
inactive: dose: 12.5 mg/kg/injection, schedule: Q01DX009 (ip), vehicle: Klucel (hydroxypropylcellulose) (HPC) 96 % of control | dose: 25.0 mg/kg/injection, schedule: Q01DX009 (ip), vehicle: Klucel (hydroxypropylcellulose) (HPC) 99 % of control | [7] 89 % of control and 102 % of control

COc1ccc(C2(C#N)CCCCC2)cc1
inactive: [8] 104 % of control | [9] 95 % of control | [10] 91 % of control | [11] 108 % of control | dose: 400.0 mg/kg/injection, schedule: Q01DX009 (ip), vehicle: Klucel (hydroxypropylcellulose) (HPC) 108 % of control | dose: 400.0 mg/kg/injection, schedule: Q04DX003 (ip), vehicle: Klucel (hydroxypropylcellulose) (HPC) 91 % of control

CC[C@@]1(O)C[C@H](OC2CC(N(C)C)C(OC3CC4OC5CC(=O)C(C)OC5OC4C(C)O3)C(C)O2)c2c(cc3c(c2O)C(=O)c2c(O)cccc2C3=O)[C@H]1C(=O)OC (stereo not given in full)
inactive: dose: 0.25 mg/kg/injection, schedule: Q01DX009 (ip), vehicle: water 109 % of control | dose: 4.0 mg/kg/injection, schedule: Q01DX009 (ip), vehicle: water 86 % of control

O=C1NC(c2cccc3ccccc23)Nc2ccccc21 (stereo not given)
inactive: [14] 104 % of control
active: [12] 169 % of control | [13] 200 % of control

O=[N+]([O-])c1cccnc1Cl
inactive: [7] 91 % of control | [8] 100 % of control | [9] 104 % of control | [10] 91 % of control | [11] 100 % of control

CC1(c2ccc(Cl)s2)NC(=O)NC1=O (stereo not given)
inactive: dose: 300.0 mg/kg/injection, schedule: Q04DX003 (ip), vehicle: saline with Tween-80 100 % of control | [6] 98 % of control | dose: 600.0 mg/kg/injection, schedule: Q04DX003 (ip), vehicle: saline with Tween-80 86 % of control

Cc1ccc2oc(=O)c(-c3cc4oc(=O)sc4cc3O)c(O)c2c1
inactive: [1] 100 % of control | [2] 100 % of control | [3] 106 % of control

Nc1ccc2cc3ccc(N)cc3nc2c1
inactive: [15] 86 % of control

Cc1ccc2oc3ccccc3c(=O)c2c1
inactive: dose: 50.0 mg/kg/injection, schedule: Q01DX001 (ip), vehicle: saline sonified 95 % of control | dose: 100.0 mg/kg/injection, schedule: Q01DX001 (ip), vehicle: saline sonified 95 % of control | dose: 200.0 mg/kg/injection, schedule: Q01DX001 (ip), vehicle: saline sonified 95 % of control

CCOC(=O)N(C)C(C)Cc1ccccc1 (stereo not given)
inactive: [16] 105 % of control | [17] 118 % of control

O=C(NC(=S)N1CCOCC1)c1ccccc1
inactive: [16] 100 % of control | [17] 90 % of control | [4] 100 % of control | [18] 97 % of control

CC(=O)O[C@@]1(C)[C@@H](C)C(=O)O[C@@H]2CCN3CC=C(COC(=O)[C@]1(C)O)[C@H]23
inactive: dose: 25.0 mg/kg/injection, schedule: Q01DX010 (ip), vehicle: carboxymethylcellulose (CMC) 110 % of control | dose: 50.0 mg/kg/injection, schedule: Q01DX010 (ip), vehicle: carboxymethylcellulose (CMC) 95 % of control | dose: 100.0 mg/kg/injection, schedule: Q01DX010 (ip), vehicle: carboxymethylcellulose (CMC) 100 % of control

O=C(O)c1c2c(nc3ccccc13)Cc1ccccc1-2
inactive: dose: 12.5 mg/kg/injection, schedule: Q01DX009 (ip), vehicle: water 96 % of control and 97 % of control | [15] 111 % of control | dose: 25.0 mg/kg/injection, schedule: Q01DX009 (ip), vehicle: water 88 % of control and 114 % of control | [19] 110 % of control | [12] 119 % of control
active: dose: 90.0 mg/kg/injection, schedule: Q01DX009 (ip), vehicle: Klucel (hydroxypropylcellulose) (HPC) 163 % of control | [13] 173 % of control and 176 % of control | dose: 133.0 mg/kg/injection, schedule: Q01DX009 (ip), vehicle: Klucel (hydroxypropylcellulose) (HPC) 186 % of control | [10] 163 % of control | [14] 187 % of control

C=Cc1ccc(Oc2ccccc2)cc1
inactive: [15] 104 % of control | [19] 104 % of control | dose: 100.0 mg/kg/injection, schedule: Q01DX009 (ip), vehicle: saline 109 % of control

C[n+]1c(-c2ccccc2)c2cc(N)ccc2c2ccc(N)cc21
active: [20] 171 % of control
inactive: [21] 90 % of control

Cc1cccc(C(=O)/C=C/c2ccc(OCc3ccccc3)cc2)c1
inactive: [16] 91 % of control | [17] 91 % of control | [4] 89 % of control

COc1cc2cnc3c4cc(OC)c(OC)cc4ccc3c2cc1OC
inactive: dose: 20.0 mg/kg/injection, schedule: Q01DX009 (ip), vehicle: saline with Tween-80 100 % of control | dose: 40.0 mg/kg/injection, schedule: Q01DX009 (ip), vehicle: saline with Tween-80 100 % of control | dose: 80.0 mg/kg/injection, schedule: Q01DX009 (ip), vehicle: saline with Tween-80 115 % of control | dose: 120.0 mg/kg/injection, schedule: Q01DX009 (ip), vehicle: saline with Tween-80 100 % of control | dose: 240.0 mg/kg/injection, schedule: Q01DX009 (ip), vehicle: saline with Tween-80 100 % of control

c1ccc(CC(Cc2ccccc2)NC2=NCCO2)cc1
inactive: [22] 100 % of control | [23] 100 % of control | [20] 100 % of control

O=C(/C=C/c1ccc(F)cc1)c1ccc(Cl)cc1
inactive: [17] 90 % of control | [4] 90 % of control | [18] 100 % of control

CCC[CH2][Sn-]([CH2]CCC)([CH2]CCC)[O]c1cc(Cl)c(Cl)cc1Cl
inactive: dose: 0.37 mg/kg/injection, schedule: Q01DX009 (ip), vehicle: Klucel (hydroxypropylcellulose) (HPC) 100 % of control | dose: 0.75 mg/kg/injection, schedule: Q01DX009 (ip), vehicle: Klucel (hydroxypropylcellulose) (HPC) 100 % of control | dose: 1.5 mg/kg/injection, schedule: Q01DX009 (ip), vehicle: Klucel (hydroxypropylcellulose) (HPC) 100 % of control | dose: 3.0 mg/kg/injection, schedule: Q01DX009 (ip), vehicle: Klucel (hydroxypropylcellulose) (HPC) 110 % of control | dose: 6.0 mg/kg/injection, schedule: Q01DX009 (ip), vehicle: Klucel (hydroxypropylcellulose) (HPC) 89 % of control

O=C1CC(c2ccccc2)=NO1
inactive: dose: 25.0 mg/kg/injection, schedule: Q01DX009 (ip), vehicle: saline with Tween-80 96 % of control | [16] 91 % of control | [17] 101 % of control | [4] 107 % of control

COc1ccc(C(=O)C=C(C(F)(F)F)C(F)(F)F)cc1
inactive: [22] 113 % of control | [23] 100 % of control | [20] 100 % of control | [21] 115 % of control | [5] 110 % of control
